Measurements from ChEMBL document CHEMBL2311510, “A new single-photon emission computed tomography (SPECT) imaging agent for serotonin transporters: [(125)I]Flip-IDAM, (2-((2-((dimethylamino)methyl)-4-iodophenyl)thio)phenyl)methanol” (Bioorg Med Chem Lett, 2013).

Key:
Spleen [1] = assay: Biodistribution in Sprague-Dawley rat spleen assessed as compound level per organ at 11 uCi, iv measured 120 mins post compound dose; format: ADME, organism-based; conditions: in vivo, 2 h
Brain [2] = assay: Biodistribution in Sprague-Dawley rat rest of brain at 11 uCi, iv measured 120 mins post compound dose; format: ADME, organism-based; conditions: in vivo, 2 h
Nucleic Acid [3] = assay: Ratio of drug level in hypothalamus to cerebellum in Sprague-Dawley rat at 11 uCi, iv measured 2 mins post compound dose; format: ADME, organism-based; conditions: in vivo
Liver [4] = assay: Biodistribution in Sprague-Dawley rat liver at 11 uCi, iv measured 30 mins post compound dose; format: ADME, organism-based; conditions: in vivo, 0.5 h
Spleen [5] = assay: Biodistribution in Sprague-Dawley rat spleen assessed as compound level per organ at 11 uCi, iv measured 60 mins post compound dose; format: ADME, organism-based; conditions: in vivo, 1 h
Liver [6] = assay: Biodistribution in Sprague-Dawley rat liver assessed as compound level per organ at 11 uCi, iv measured 60 mins post compound dose; format: ADME, organism-based; conditions: in vivo, 1 h
Brain [7] = assay: Biodistribution in Sprague-Dawley rat brain assessed as compound level per organ at 11 uCi, iv measured 30 mins post compound dose; format: ADME, organism-based; conditions: in vivo, 0.5 h
Muscle tissue [8] = assay: Biodistribution in Sprague-Dawley rat muscle assessed as compound level per organ at 11 uCi, iv measured 2 mins post compound dose; format: ADME, organism-based; conditions: in vivo
Kidney [9] = assay: Biodistribution in Sprague-Dawley rat kidney assessed as compound level per organ at 11 uCi, iv measured 60 mins post compound dose; format: ADME, organism-based; conditions: in vivo, 1 h
Heart [10] = assay: Biodistribution in Sprague-Dawley rat heart at 11 uCi, iv measured 30 mins post compound dose; format: ADME, organism-based; conditions: in vivo, 0.5 h
Cerebellum = assay: Biodistribution in Sprague-Dawley rat cerebellum at 11 uCi, iv measured 30 mins post compound dose; format: ADME, organism-based; conditions: in vivo, 0.5 h
Brain [11] = assay: Biodistribution in Sprague-Dawley rat brain at 11 uCi, iv measured 60 mins post compound dose; format: ADME, organism-based; conditions: in vivo, 1 h
Hippocampus = assay: Biodistribution in Sprague-Dawley rat hippocampus at 11 uCi, iv measured 30 mins post compound dose; format: ADME, organism-based; conditions: in vivo, 0.5 h
Spleen [12] = assay: Biodistribution in Sprague-Dawley rat spleen at 11 uCi, iv measured 60 mins post compound dose; format: ADME, organism-based; conditions: in vivo, 1 h
Nucleic Acid [13] = assay: Ratio of drug level in rest of brain region to cerebellum in Sprague-Dawley rat at 11 uCi, iv measured 30 mins post compound dose; format: ADME, organism-based; conditions: in vivo, 0.5 h
Zone of skin [14] = assay: Biodistribution in Sprague-Dawley rat skin at 11 uCi, iv measured 30 mins post compound dose; format: ADME, organism-based; conditions: in vivo, 0.5 h
Heart [15] = assay: Biodistribution in Sprague-Dawley rat heart assessed as compound level per organ at 11 uCi, iv measured 60 mins post compound dose; format: ADME, organism-based; conditions: in vivo, 1 h
Pancreas [16] = assay: Biodistribution in Sprague-Dawley rat pancreas assessed as compound level per organ at 11 uCi, iv measured 120 mins post compound dose; format: ADME, organism-based; conditions: in vivo, 2 h
Blood [17] = assay: Biodistribution in Sprague-Dawley rat blood at 11 uCi, iv measured 30 mins post compound dose; format: ADME, organism-based; conditions: in vivo, 0.5 h
Spleen [18] = assay: Biodistribution in Sprague-Dawley rat spleen at 11 uCi, iv measured 120 mins post compound dose; format: ADME, organism-based; conditions: in vivo, 2 h
Hypothalamus [19] = assay: Biodistribution in Sprague-Dawley rat hypothalamus at 11 uCi, iv measured 60 mins post compound dose; format: ADME, organism-based; conditions: in vivo, 1 h
Brain [20] = assay: Biodistribution in Sprague-Dawley rat brain assessed as compound level per organ at 11 uCi, iv measured 120 mins post compound dose; format: ADME, organism-based; conditions: in vivo, 2 h
Nucleic Acid [21] = assay: Ratio of drug level in hippocampus to cerebellum in Sprague-Dawley rat at 11 uCi, iv measured 2 mins post compound dose; format: ADME, organism-based; conditions: in vivo
Striatum = assay: Biodistribution in Sprague-Dawley rat striatum at 11 uCi, iv measured 60 mins post compound dose; format: ADME, organism-based; conditions: in vivo, 1 h
Brain [22] = assay: Biodistribution in Sprague-Dawley rat brain assessed as compound level per organ at 11 uCi, iv measured 60 mins post compound dose; format: ADME, organism-based; conditions: in vivo, 1 h
Kidney [23] = assay: Biodistribution in Sprague-Dawley rat kidney at 11 uCi, iv measured 120 mins post compound dose; format: ADME, organism-based; conditions: in vivo, 2 h
Bone [24] = assay: Biodistribution in Sprague-Dawley rat bone assessed as compound level per organ at 11 uCi, iv measured 60 mins post compound dose; format: ADME, organism-based, Bone element; conditions: in vivo, 1 h
Bone [25] = assay: Biodistribution in Sprague-Dawley rat bone at 11 uCi, iv measured 120 mins post compound dose; format: ADME, organism-based, Bone element; conditions: in vivo, 2 h
Zone of skin [26] = assay: Biodistribution in Sprague-Dawley rat skin assessed as compound level per organ at 11 uCi, iv measured 2 mins post compound dose; format: ADME, organism-based; conditions: in vivo
Nucleic Acid [27] = assay: Ratio of drug level in hippocampus to cerebellum in Sprague-Dawley rat at 11 uCi, iv measured 60 mins post compound dose; format: ADME, organism-based; conditions: in vivo, 1 h
Muscle tissue [28] = assay: Biodistribution in Sprague-Dawley rat muscle assessed as compound level per organ at 11 uCi, iv measured 120 mins post compound dose; format: ADME, organism-based; conditions: in vivo, 2 h
Liver [29] = assay: Biodistribution in Sprague-Dawley rat liver assessed as compound level per organ at 11 uCi, iv measured 2 mins post compound dose; format: ADME, organism-based; conditions: in vivo
Liver [30] = assay: Biodistribution in Sprague-Dawley rat liver assessed as compound level per organ at 11 uCi, iv measured 30 mins post compound dose; format: ADME, organism-based; conditions: in vivo, 0.5 h
Kidney [31] = assay: Biodistribution in Sprague-Dawley rat kidney at 11 uCi, iv measured 30 mins post compound dose; format: ADME, organism-based; conditions: in vivo, 0.5 h
Spleen [32] = assay: Biodistribution in Sprague-Dawley rat spleen at 11 uCi, iv measured 30 mins post compound dose; format: ADME, organism-based; conditions: in vivo, 0.5 h
Zone of skin [33] = assay: Biodistribution in Sprague-Dawley rat skin at 11 uCi, iv measured 2 mins post compound dose; format: ADME, organism-based; conditions: in vivo
Nucleic Acid [34] = assay: Ratio of drug level in hippocampus to cerebellum in Sprague-Dawley rat at 11 uCi, iv measured 120 mins post compound dose; format: ADME, organism-based; conditions: in vivo, 2 h
Bone [35] = assay: Biodistribution in Sprague-Dawley rat bone assessed as compound level per organ at 11 uCi, iv measured 120 mins post compound dose; format: ADME, organism-based, Bone element; conditions: in vivo, 2 h
Hypothalamus [36] = assay: Biodistribution in Sprague-Dawley rat hypothalamus at 11 uCi, iv measured 120 mins post compound dose; format: ADME, organism-based; conditions: in vivo, 2 h
Liver [37] = assay: Biodistribution in Sprague-Dawley rat liver at 11 uCi, iv measured 120 mins post compound dose; format: ADME, organism-based; conditions: in vivo, 2 h
Lung [38] = assay: Biodistribution in Sprague-Dawley rat lung at 11 uCi, iv measured 30 mins post compound dose; format: ADME, organism-based; conditions: in vivo, 0.5 h
Nucleic Acid [39] = assay: Ratio of drug level in rest of brain region to cerebellum in Sprague-Dawley rat at 11 uCi, iv measured 120 mins post compound dose; format: ADME, organism-based; conditions: in vivo, 2 h
Liver [40] = assay: Biodistribution in Sprague-Dawley rat liver at 11 uCi, iv measured 2 mins post compound dose; format: ADME, organism-based; conditions: in vivo
Heart [41] = assay: Biodistribution in Sprague-Dawley rat heart at 11 uCi, iv measured 2 mins post compound dose; format: ADME, organism-based; conditions: in vivo
Lung [42] = assay: Biodistribution in Sprague-Dawley rat lung at 11 uCi, iv measured 2 mins post compound dose; format: ADME, organism-based; conditions: in vivo
Pancreas [43] = assay: Biodistribution in Sprague-Dawley rat pancreas assessed as compound level per organ at 11 uCi, iv measured 30 mins post compound dose; format: ADME, organism-based; conditions: in vivo, 0.5 h
Pancreas [44] = assay: Biodistribution in Sprague-Dawley rat pancreas at 11 uCi, iv measured 120 mins post compound dose; format: ADME, organism-based; conditions: in vivo, 2 h
Blood [45] = assay: Biodistribution in Sprague-Dawley rat blood assessed as compound level per organ at 11 uCi, iv measured 30 mins post compound dose; format: ADME, organism-based; conditions: in vivo, 0.5 h
Bone [46] = assay: Biodistribution in Sprague-Dawley rat bone at 11 uCi, iv measured 2 mins post compound dose; format: ADME, organism-based, Bone element; conditions: in vivo
Nucleic Acid [47] = assay: Ratio of drug level in hypothalamus to cerebellum in Sprague-Dawley rat at 11 uCi, iv measured 120 mins post compound dose; format: ADME, organism-based; conditions: in vivo, 2 h
Liver [48] = assay: Biodistribution in Sprague-Dawley rat liver at 11 uCi, iv measured 60 mins post compound dose; format: ADME, organism-based; conditions: in vivo, 1 h

`CN(C)Cc1cc([125I])ccc1Sc1ccccc1CO` gave a Drug uptake (Spleen [1]) of 0.07 %ID, a Drug uptake (Brain [2]) of 0.06 % ID/g and a Ratio (Nucleic Acid [3]) of 1.02. It also gave a Drug uptake (Liver [4]) of 1.28 % ID/g, a Drug uptake (Spleen [5]) of 0.14 %ID and a Drug uptake (Liver [6]) of 3.8 %ID. For the same compound, the Drug uptake (Brain [7]) was 1.13 %ID, the Drug uptake (Muscle tissue [8]) was 21.9 %ID and the Drug uptake (Kidney [9]) was 1.44 %ID. For the same compound, the Drug uptake (Heart [10]) was 0.38 % ID/g, the Drug uptake (Cerebellum) was 0.25 % ID/g and the Drug uptake (Brain [11]) was 0.14 % ID/g. The Drug uptake (Hippocampus) was 0.66 % ID/g, the Drug uptake (Spleen [12]) was 0.22 % ID/g and the Ratio (Nucleic Acid [13]) was 2.22. The Drug uptake (Zone of skin [14]) was 0.31 % ID/g, the Drug uptake (Heart [15]) was 0.15 %ID and the Drug uptake (Pancreas [16]) was 0.06 %ID. It also gave a Drug uptake (Blood [17]) of 0.36 % ID/g, a Drug uptake (Spleen [18]) of 0.12 % ID/g and a Drug uptake (Hypothalamus [19]) of 0.32 % ID/g. For the same compound, the Drug uptake (Brain [20]) was 0.13 %ID, the Ratio (Nucleic Acid [21]) was 0.85 and the Drug uptake (Striatum) was 0.25 % ID/g. It also gave a Drug uptake (Brain [22]) of 0.31 %ID, a Drug uptake (Kidney [23]) of 0.57 % ID/g and a Drug uptake (Bone [24]) of 0.01 %ID. It also gave a Drug uptake (Bone [25]) of 0.16 % ID/g, a Drug uptake (Zone of skin [26]) of 8.86 %ID and a Ratio (Nucleic Acid [27]) of 1.83. The Drug uptake (Muscle tissue [28]) was 5.45 %ID, the Drug uptake (Liver [29]) was 9.42 %ID and the Drug uptake (Liver [30]) was 9.09 %ID. For the same compound, the Drug uptake (Kidney [31]) was 1.45 % ID/g, the Drug uptake (Spleen [32]) was 0.55 % ID/g and the Drug uptake (Zone of skin [33]) was 0.28 % ID/g. For the same compound, the Ratio (Nucleic Acid [34]) was 1.5, the Drug uptake (Bone [35]) was 0.01 %ID and the Drug uptake (Hypothalamus [36]) was 0.1 % ID/g. The Drug uptake (Liver [37]) was 0.41 % ID/g, the Drug uptake (Lung [38]) was 0.77 % ID/g and the Ratio (Nucleic Acid [39]) was 1.18. For the same compound, the Drug uptake (Liver [40]) was 1.23 % ID/g, the Drug uptake (Heart [41]) was 1.46 % ID/g and the Drug uptake (Lung [42]) was 3.23 % ID/g. The Drug uptake (Pancreas [43]) was 0.26 %ID, the Drug uptake (Pancreas [44]) was 0.16 % ID/g and the Drug uptake (Blood [45]) was 5.07 %ID. For the same compound, the Drug uptake (Bone [46]) was 0.6 % ID/g, the Ratio (Nucleic Acid [47]) was 1.93 and the Drug uptake (Liver [48]) was 0.48 % ID/g.
